Measurements taken from US20260159512A1, “BCAT2 INHIBITORS” (AGIOS PHARMACEUTICALS, INC., priority 2021, published 2026).

Assays:
Settings in all cases: average where tested multiple times
[1] = biological target: T1, hBCAT1 (Homo sapiens, UniProt P54687); assay: BCAT1 in vitro enzyme inhibition assay (resazurin/diaphorase-coupled fluorescence); assay type: biochemical
T1 sequence (P54687 1-386): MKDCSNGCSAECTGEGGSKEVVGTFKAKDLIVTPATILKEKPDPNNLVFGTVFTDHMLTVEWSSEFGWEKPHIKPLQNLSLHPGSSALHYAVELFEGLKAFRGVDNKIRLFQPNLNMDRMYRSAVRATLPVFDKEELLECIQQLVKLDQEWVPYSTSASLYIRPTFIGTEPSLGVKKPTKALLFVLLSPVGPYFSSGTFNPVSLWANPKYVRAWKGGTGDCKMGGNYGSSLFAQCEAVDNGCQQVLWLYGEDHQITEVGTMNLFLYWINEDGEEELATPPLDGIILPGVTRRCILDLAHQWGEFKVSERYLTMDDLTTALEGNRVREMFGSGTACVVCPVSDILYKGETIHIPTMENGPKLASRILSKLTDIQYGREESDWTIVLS
Method in brief: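 Ten-point, 3-fold compound series (top final 100 μM, delivered 1:50 from 50× DMSO stocks) tested against hBCAT1. Inhibition detected via diaphorase-coupled resazurin fluorescence, duplicate wells, with values from repeated runs averaged.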

[2] = biological target: T2, BCAT2 (Homo sapiens, UniProt O15382); assay: BCAT2 in vitro cell inhibition using engineered A549 cells (KMV cell assay, 13C6-KMV by LC-MS/MS); assay type: cell-based; parameters: The result was an engineered A549 cell line that expressed endogenous BCAT2; endogenous in cells; host or cells: A549 cells with MUT and BCAT1 knocked out by CRISPR/CAS9
T2 sequence (O15382 28-392): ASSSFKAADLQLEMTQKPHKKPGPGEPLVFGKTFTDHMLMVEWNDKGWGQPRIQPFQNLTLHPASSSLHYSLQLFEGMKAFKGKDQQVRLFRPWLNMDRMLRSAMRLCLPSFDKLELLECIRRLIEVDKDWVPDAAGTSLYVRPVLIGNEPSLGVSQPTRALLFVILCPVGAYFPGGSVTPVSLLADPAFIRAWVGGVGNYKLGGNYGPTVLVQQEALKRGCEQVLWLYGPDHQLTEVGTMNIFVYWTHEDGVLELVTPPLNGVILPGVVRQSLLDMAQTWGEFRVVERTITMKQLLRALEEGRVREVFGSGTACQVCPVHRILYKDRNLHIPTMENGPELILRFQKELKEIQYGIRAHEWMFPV

[3] = biological target: T2, BCAT2; assay: BCAT2 in vitro enzyme inhibition assay (resazurin/diaphorase-coupled fluorescence); assay type: biochemical
Method in brief: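 Coupled fluorescence readout: glutamate formed from L-leucine/α-ketoglutarate transamination drives GDH/NAD/diaphorase reduction of resazurin (Ex 540/Em 590). Human BCAT2 was first exposed 1 h at room temperature to compound, top final 100 μM in 3-fold, 10-point series; substrate reaction ran 1 h before SDS quench, in technical duplicate with DMSO max and enzyme-free min controls.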

`CC(C)Cc1nc2cnc(-c3ccn(C)n3)cc2n1[C@@H]1CCC[C@H](NC(=O)c2ncc(Cl)s2)[C@H]1O` [Example 223, 5-chloro-N-((1S,2R,3R)-2-hydroxy-3-(2-isobutyl-6-(1-methyl-1H-pyrazol-3-yl)-1H-imidazo[4,5-c]pyridin-1-yl)cyclohexyl)thiazole-2-carboxamide] was tested, and the IC50 [1] was < 500 nM, the IC50 [2] was 100 to 500 nM and the IC50 [3] was ≤ 100 nM.

`CC(C)Cc1nc2cnc(-c3ccn[nH]3)cc2n1[C@@H]1CCC[C@H](NC(=O)c2ncc(Cl)s2)[C@H]1O` [Example 225, 5-chloro-N-((1S,2R,3R)-2-hydroxy-3-(2-isobutyl-6-(1H-pyrazol-5-yl)-1H-imidazo[4,5-c]pyridin-1-yl)cyclohexyl)thiazole-2-carboxamide] was tested, and the IC50 [1] was < 500 nM, the IC50 [2] was 100 to 500 nM and the IC50 [3] was ≤ 100 nM.

`CC(C)Cc1nc2cnc(-n3nccn3)cc2n1[C@@H]1CCC[C@H](NC(=O)c2ncc(Cl)s2)[C@H]1O` [Example 227, 5-chloro-N-((1S,2R,3R)-2-hydroxy-3-(2-isobutyl-6-(2H-1,2,3-triazol-2-yl)-1H-imidazo[4,5-c]pyridin-1-yl)cyclohexyl)thiazole-2-carboxamide] was tested, and the IC50 [1] was < 500 nM, the IC50 [2] was ≤ 100 nM and the IC50 [3] was ≤ 100 nM.

In the case of `CC(C)Cc1nc2cnc(-c3ccn(C(F)F)n3)cc2n1[C@@H]1CCC[C@H](NC(=O)c2ncc(Cl)s2)[C@H]1O` [Example 230, 5-chloro-N-((1S,2R,3R)-3-(6-(1-(difluoromethyl)-1H-pyrazol-3-yl)-2-isobutyl-1H-imidazo[4,5-c]pyridin-1-yl)-2-hydroxycyclohexyl)thiazole-2-carboxamide], the IC50 [1] is reported as 500 to 1000 nM, the IC50 [2] is reported as > 1000 nM and the IC50 [3] is reported as ≤ 100 nM.

For `CC(C)Cc1nc2cnc(-n3cc(F)cn3)cc2n1[C@@H]1CCC[C@H](NC(=O)c2ncc(Cl)s2)[C@H]1O` [Example 232, 5-chloro-N-((1S,2R,3R)-3-(6-(4-fluoro-1H-pyrazol-1-yl)-2-isobutyl-1H-imidazo[4,5-c]pyridin-1-yl)-2-hydroxycyclohexyl)thiazole-2-carboxamide], the IC50 [1] was < 500 nM, the IC50 [2] was 500 to 1000 nM and the IC50 [3] was ≤ 100 nM.

In the case of `CO[C@@H]1[C@@H](NC(=O)c2ncc(Cl)s2)CCC[C@H]1n1c(-c2ccccc2F)nc2cnc(-c3nc[nH]n3)cc21` [Example 234, 5-chloro-N-((1S,2R,3R)-3-(2-(2-fluorophenyl)-6-(1H-1,2,4-triazol-3-yl)-1H-imidazo[4,5-c]pyridin-1-yl)-2-methoxycyclohexyl)thiazole-2-carboxamide], the IC50 [1] is reported as 1000 to 5000 nM, the IC50 [2] is reported as 500 to 1000 nM and the IC50 [3] is reported as ≤ 100 nM.

`CC(C)Cc1nc2cnc(-c3ccccn3)cc2n1[C@@H]1CCC[C@H](NC(=O)c2ncc(Cl)s2)[C@H]1O` [Example 235, 5-chloro-N-((1S,2R,3R)-2-hydroxy-3-(2-isobutyl-6-(pyridin-2-yl)-1H-imidazo[4,5-c]pyridin-1-yl)cyclohexyl)thiazole-2-carboxamide] was tested, and the IC50 [1] was < 500 nM, the IC50 [2] was ≤ 100 nM and the IC50 [3] was ≤ 100 nM.

With `Cc1coc(-c2cc3c(cn2)nc(-c2ccccc2F)n3[C@@H]2CCC[C@H](NC(=O)c3ncc(Cl)s3)[C@H]2O)n1` [Example 238, 5-chloro-N-((1S,2R,3R)-3-(2-(2-fluorophenyl)-6-(4-methyloxazol-2-yl)-1H-imidazo[4,5-c]pyridin-1-yl)-2-hydroxycyclohexyl)thiazole-2-carboxamide] the IC50 [1] was < 500 nM, the IC50 [2] was ≤ 100 nM and the IC50 [3] was ≤ 100 nM.

With `O=C(N[C@H]1CCC[C@@H](n2c(-c3ccccc3F)nc3cnc(-c4ccn[nH]4)cc32)[C@@H]1O)c1ncc(Cl)s1` [Example 240, 5-chloro-N-((1S,2R,3R)-3-(2-(2-fluorophenyl)-6-(1H-pyrazol-5-yl)-1H-imidazo[4,5-c]pyridin-1-yl)-2-hydroxycyclohexyl)thiazole-2-carboxamide] the IC50 [1] was < 500 nM, the IC50 [2] was ≤ 100 nM and the IC50 [3] was ≤ 100 nM.

For `O=C(N[C@H]1CCC[C@@H](n2c(-c3ccccc3F)nc3cnc(-c4ccccn4)cc32)[C@@H]1O)c1ncc(Cl)s1` [Example 242, 5-chloro-N-((1S,2R,3R)-3-(2-(2-fluorophenyl)-6-(pyridin-2-yl)-1H-imidazo[4,5-c]pyridin-1-yl)-2-hydroxycyclohexyl)thiazole-2-carboxamide], the IC50 [1] was < 500 nM, the IC50 [2] was ≤ 100 nM and the IC50 [3] was ≤ 100 nM.

For `Cc1cnn(-c2cc3c(cn2)nc(CC(C)C)n3[C@@H]2CCC[C@H](NC(=O)c3ncc(Cl)s3)[C@H]2O)n1` [Example 243, 5-chloro-N-((1S,2R,3R)-2-hydroxy-3-(2-isobutyl-6-(4-methyl-2H-1,2,3-triazol-2-yl)-1H-imidazo[4,5-c]pyridin-1-yl)cyclohexyl)thiazole-2-carboxamide], the IC50 [1] was < 500 nM, the IC50 [2] was ≤ 100 nM and the IC50 [3] was ≤ 100 nM.

For `O=C(N[C@H]1CCC[C@@H](n2c(-c3ccccc3F)nc3cnc(-c4ncccn4)cc32)[C@@H]1O)c1ncc(Cl)s1` [Example 245, 5-chloro-N-((1S,2R,3R)-3-(2-(2-fluorophenyl)-6-(pyrimidin-2-yl)-1H-imidazo[4,5-c]pyridin-1-yl)-2-hydroxycyclohexyl)thiazole-2-carboxamide], the IC50 [1] was < 500 nM, the IC50 [2] was ≤ 100 nM and the IC50 [3] was ≤ 100 nM.

For `Cc1cnn(-c2cc3c(cn2)nc(-c2ccccc2F)n3[C@@H]2CCC[C@H](NC(=O)c3ncc(Cl)s3)[C@H]2O)n1` [Example 246, 5-chloro-N-((1S,2R,3R)-3-(2-(2-fluorophenyl)-6-(4-methyl-2H-1,2,3-triazol-2-yl)-1H-imidazo[4,5-c]pyridin-1-yl)-2-hydroxycyclohexyl)thiazole-2-carboxamide], the IC50 [1] was < 500 nM, the IC50 [2] was ≤ 100 nM and the IC50 [3] was ≤ 100 nM.

`O=C(N[C@H]1CCC[C@@H](n2c(-c3ccccc3F)nc3cnc(-c4ncco4)cc32)[C@@H]1O)c1ncc(Cl)s1` [Example 248, 5-chloro-N-((1S,2R,3R)-3-(2-(2-fluorophenyl)-6-(oxazol-2-yl)-1H-imidazo[4,5-c]pyridin-1-yl)-2-hydroxycyclohexyl)thiazole-2-carboxamide] was tested, and the IC50 [1] was < 500 nM, the IC50 [2] was ≤ 100 nM and the IC50 [3] was ≤ 100 nM.

For `CC(C)Cc1nc2cnc(-c3nc[nH]n3)cc2n1[C@@H]1CCC[C@H](NC(=O)c2ncc(Cl)s2)[C@H]1O` [Example 250, 5-chloro-N-((1S,2R,3R)-2-hydroxy-3-(2-isobutyl-6-(1H-1,2,4-triazol-3-yl)-1H-imidazo[4,5-c]pyridin-1-yl)cyclohexyl)thiazole-2-carboxamide], the IC50 [1] was < 500 nM, the IC50 [2] was ≤ 100 nM and the IC50 [3] was ≤ 100 nM.

For `O=C(N[C@H]1C[C@H](O)C[C@@H](n2c(-c3ccccc3F)nc3cnc(-c4nc[nH]n4)cc32)C1)c1ccc(Cl)s1` [Example 254, 5-chloro-N-((1R,3S,5S)-3-(2-(2-fluorophenyl)-6-(1H-1,2,4-triazol-3-yl)-1H-imidazo[4,5-c]pyridin-1-yl)-5-hydroxycyclohexyl)thiophene-2-carboxamide], the IC50 [1] was < 500 nM, the IC50 [2] was ≤ 100 nM and the IC50 [3] was ≤ 100 nM.

With `CC(C)Cc1nc2cnc(-c3nc[nH]n3)cc2n1[C@@H]1C[C@@H](O)C[C@H](NC(=O)c2ncc(Cl)s2)C1` [Example 256, 5-chloro-N-((1R,3S,5S)-3-hydroxy-5-(2-isobutyl-6-(1H-1,2,4-triazol-3-yl)-1H-imidazo[4,5-c]pyridin-1-yl)cyclohexyl)thiazole-2-carboxamide] the IC50 [1] was < 500 nM, the IC50 [2] was ≤ 100 nM and the IC50 [3] was ≤ 100 nM.

`O=C(N[C@H]1C[C@H](O)C[C@@H](n2c(-c3ccccc3F)nc3cnc(-c4ncco4)cc32)C1)c1ncc(Cl)s1` [Example 260, 5-chloro-N-((1R,3S,5S)-3-(2-(2-fluorophenyl)-6-(oxazol-2-yl)-1H-imidazo[4,5-c]pyridin-1-yl)-5-hydroxycyclohexyl)thiazole-2-carboxamide] was tested, and the IC50 [1] was < 500 nM, the IC50 [2] was ≤ 100 nM and the IC50 [3] was ≤ 100 nM.
